The experiment addresses T1, CD73 (Homo sapiens, UniProt P21589).
T1 construct: Eight different CD73-expressing DP8α TREG clones were all separately co-cultured; endogenous in cells; host or cells: CD73-expressing DP8α Treg clones (human T cell clones)
T1 sequence (P21589 27-549): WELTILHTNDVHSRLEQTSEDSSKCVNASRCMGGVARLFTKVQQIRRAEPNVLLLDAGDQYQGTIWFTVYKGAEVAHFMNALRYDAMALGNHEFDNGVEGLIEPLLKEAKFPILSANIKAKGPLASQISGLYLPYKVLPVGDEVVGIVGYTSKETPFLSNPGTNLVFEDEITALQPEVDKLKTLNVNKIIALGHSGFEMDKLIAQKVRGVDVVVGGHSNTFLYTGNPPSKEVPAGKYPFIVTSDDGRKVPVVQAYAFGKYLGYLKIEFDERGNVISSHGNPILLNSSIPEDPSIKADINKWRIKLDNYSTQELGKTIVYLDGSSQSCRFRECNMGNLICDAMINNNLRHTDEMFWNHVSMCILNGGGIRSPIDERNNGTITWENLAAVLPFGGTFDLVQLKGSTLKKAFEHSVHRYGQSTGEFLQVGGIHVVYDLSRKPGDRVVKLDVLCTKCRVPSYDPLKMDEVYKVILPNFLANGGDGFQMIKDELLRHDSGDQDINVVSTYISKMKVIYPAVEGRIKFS
In words: Co-culture of CD73-expressing DP8α TREG clones with VPD-stained CD4+ T cells, with or without CD73 inhibitors; proliferation as percentage of VPD LOW CD4+ T cells. The format is cell-based. Conditions: 1:1 co-culture, proliferation measured 6 days later; three concentrations per inhibitor; compared to no treatment.

The structures appear in SMILES notation.

In the case of `Nc1ncnc2c1ncn2[C@@H]1O[C@H](COP(=O)([O-])CP(=O)(O)O)[C@@H](O)[C@H]1O.[Na+]` [Adenosine 5′-(α,β-methylene)diphosphate sodium salt], the “Effect on suppressive function of CD73-expressing DP8α TREG clones (inhibition of CD4+ T cell proliferation)” value is “drastically impaired the suppressive function”.

The values are drawn from patent US20240019437A1, “METHODS FOR THE DIAGNOSIS AND THE TREATMENT OF GRAFT-VERSUS-HOST DISEASE” (INSERM (INSTITUT NATIONAL DE LA SANTÉ ET DE LA RECHERCHE …, priority 2020, published 2024).
